Reference: patent US8017581B1, “MSH-agonist tripeptide conjugates” (Centre National de la Recherche Scientifique (CNRS), priority 2004, dated 2011)
Non-standard residues stand in square brackets, D forms with d. Residues, ends and D or L forms follow the SMILES beside them. *: point of attachment. Palmitoyl = CCCCCCCCCCCCCCCC(=O)*; Nle = CCCC[C@H](N)C(=O)O

Key:
MC1 receptor [1] = biological target: T1, MC1 receptor (Mus musculus, UniProt Q01727); assay: cAMP induction on Cloudman S91 mouse melanoma cell line (preliminary screening); format: cell-based; details: tripeptide at 50 nM, percentage of the maximum response with control peptide (1) at 50 nM
T1 construct: The Cloudman S91 mouse melanoma cell line (Yasumara et al. Science. 154, pages 1186-1189) was used for the preliminary screening; endogenous in cells; host or cells: Cloudman S91 mouse melanoma cells
Experimental: The Cloudman S91 mouse melanoma cell line (Yasumara et al. Science. 154, pages 1186-1189) was used for the preliminary screening. The cells were maintained in HAM F10 with 10% of horse serum, 2% of fetal calf serum (FCS), 1 mM of glutamine, 100 U/ml of penicillin and 10^−4 g/ml of streptomycin (Eurobio, Les Ulis, France). All the cell lines were maintained at 37° C. in a 5% CO2 atmosphere, and the cell culture media were renewed every two days. The cells were plated out onto a 96-well plate (Nunc, Roskilde, Denmark) 24 hours before contact with the peptides.
(§1) Briefly, the cells plated out the day before were incubated for 1 hour with 10^−4 M of adenine (Sigma) and then for 10 minutes in Krebs Ringer Hepes medium with 10^−4 M of isobutyl-1-methylxanthine (Sigma), 10^−4 M of 4-[(3-butoxy-4-methoxyphenyl)methyl]-2-imidazolidinone (Calbiochem) and tripeptides according to the invention, at 10^−7 M.
(§2) After this period of time, cell lysis was carried out according to the manufacturer's protocol.
The cAMP content was measured using a competition binding assay kit (RPN225, Amersham Pharmacia Biotech) according to the manufacturer's instructions. […]
Thus, 1 tripeptide according to the invention was tested, at a concentration of 50 nM, on the induction of cAMP, which was calculated with respect to the response of cAMP production induced by α-MSH (50 nM).

MC1 receptor [2] = biological target: T2, MC1 receptor (Homo sapiens, UniProt Q01726); assay: cAMP production in M4Be human melanocyte cells (EC50 determination); format: cell-based; details: mean of at least two sets of independent experiments
T2 construct: endogenous in cells; host or cells: M4Be human melanocyte cell line
Experimental: The M4Be human cell line (Jacubovich et al. Cancer Immunol. Immunother. 1979, 7, 59-64), a melanocyte cell line capable of producing melanins, was used in this study to determine the EC50 values.
The cells were maintained in Dulbecco's modified Eagle medium, with 10% of FCS, 1 mM of glutamine, 100 U/ml of penicillin and 10^−4 g/ml of streptomycin. All the cell lines were maintained at 37° C. in a 5% CO2 atmosphere, and the cell culture media were renewed every two days. The cells were plated onto a 96-well plate (Nunc, Roskilde, Denmark) 24 hours before contact with the peptides.
as §1, §2
The cAMP content was measured using a competition binding assay kit (RPN225, Amersham Pharmacia Biotech) according to the manufacturer's instructions. Each independent experiment was carried out at least twice in triplicate.
Determination of the EC50:
The curves were adjusted and the EC50 values were determined with nonlinear regression in the GraphPad Prism (GraphPad software). Each EC50 value was the mean of at least two sets of independent experiments.

T2 sequence (Q01726 whole entry): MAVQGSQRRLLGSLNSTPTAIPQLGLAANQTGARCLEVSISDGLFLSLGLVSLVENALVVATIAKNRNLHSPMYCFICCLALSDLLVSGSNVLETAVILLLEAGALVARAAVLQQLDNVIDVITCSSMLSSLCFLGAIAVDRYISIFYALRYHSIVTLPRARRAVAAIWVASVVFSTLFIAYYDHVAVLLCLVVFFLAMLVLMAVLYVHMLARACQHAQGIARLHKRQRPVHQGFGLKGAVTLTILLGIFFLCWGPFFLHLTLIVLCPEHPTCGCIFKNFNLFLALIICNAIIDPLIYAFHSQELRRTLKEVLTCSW
T1 sequence (Q01727 whole entry): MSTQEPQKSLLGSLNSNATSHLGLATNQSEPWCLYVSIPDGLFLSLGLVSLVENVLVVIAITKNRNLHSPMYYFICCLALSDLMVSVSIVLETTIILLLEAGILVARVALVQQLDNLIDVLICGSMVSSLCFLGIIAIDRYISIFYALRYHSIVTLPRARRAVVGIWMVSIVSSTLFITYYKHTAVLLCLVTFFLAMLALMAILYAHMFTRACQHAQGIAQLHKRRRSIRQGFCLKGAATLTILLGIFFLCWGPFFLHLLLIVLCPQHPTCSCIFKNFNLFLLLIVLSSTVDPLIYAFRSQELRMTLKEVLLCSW

| % cAMP induction (MC1 receptor [1]) [%] | EC50 (MC1 receptor [2]) [nM] | Structure (SMILES) |
| --- | --- | --- |
| 147 | 2.3 | CCCCCCCCCCCCCCCC(=O)N[C@@H](Cc1c[nH]cn1)C(=O)N[C@H](Cc1ccccc1)C(=O)N[C@@H](CCCNC(=N)N)C(N)=O [tripeptide 1, Palm-His-DPhe-Arg-NH2] (Palmitoyl-His-[dF]-Arg-NH2) |
|  | 17.3 | CCCCCCCCCCCCCCCC(=O)N[C@@H](Cc1c[nH]cn1)C(=O)N[C@H](Cc1ccccc1)C(=O)N[C@@H](Cc1c[nH]c2ccccc12)C(N)=O [tripeptide 2, Palm-His-DPhe-Trp-NH2] (Palmitoyl-His-[dF]-Trp-NH2) |
|  | 4 | CCCC[C@H](NC(C)=O)C(=O)N[C@@H](C)C(=O)N[C@@H](Cc1c[nH]cn1)C(=O)N[C@H](Cc1ccccc1)C(=O)N[C@@H](CCCNC(=N)N)C(=O)N[C@@H](Cc1c[nH]c2ccccc12)C(N)=O [control peptide, Ac-Nle-Ala-His-(D)Phe-Arg-Trp-NH2, reference compound] (Ac-[Nle]AH[dF]RW-NH2) |
